Results: patent US10647682B2, “Salts of 2,6-dimethylpyrimidone derivatives and uses thereof” (SUNSHINE LAKE PHARMA CO., LTD., priority 2016, dated 2020)
Where two headings read alike, the source gives them in different places.

Columns and labels:
[1] = Pharmacokinetics experiments of the salts, oral capsules in Beagle dogs; settings: 5 mg/kg
Protocol: (§1) (3-(4-(dihexylamino)-3-fluorophenyl)-2,6-dimethylpyrimidin-4(3H)-one), crystalline forms of the various salts were filled into capsules, which were administered orally.
(§2) Blood samples were collected at 0.25, 0.5, 1.0, 2.0, 4.0, 6.0, 8.0, 12 and 24 hours after the administration. Standard curve was plotted based on concentrations of the samples in a suitable range, the concentrations of test compounds in plasma samples were determined by using Agilent 6430 LC-MS/MS under MRM mode, and quantitative analysis was performed. Pharmacokinetic parameters were calculated according to drug concentration-time curve using a noncompartmental method by WinNonLin 6.3 software.

[2] = High temperature test (stability); format: physicochemical; settings: 60° C.; for purity: HPLC
Protocol: High temperature test: an appropriate amount of sample was put in a weighing bottle in the form of a thin layer of ≤5 mm, under a temperature of 60° C. for 10 days. Samples were took at fifth and tenth day, appearance was observed and purity was detected by HPLC.

[3] = High humidity test (stability); format: physicochemical; settings: 25° C., RH 90%±5%, HPLC
Protocol: High humidity test: an appropriate amount of sample was put in a weighing bottle in the form of a thin layer of ≤5 mm, under a temperature of 25° C. and RH 90%±5% for 10 days. Samples were took at fifth and tenth day, appearance was observed and purity was detected by HPLC.

[4] = dog, in vivo, po, 5 mg/kg
Protocol: as §1, §2

Question: With CCCCCCN(CCCCCC)c1ccc(-n2c(C)nc(C)cc2=O)cc1F [Compound (I), 3-(4-(dihexylamino)-3-fluorophenyl)-2,6-dimethylpyrimidin-4(3H)-one] as the compound, how does the AUC(0-inf) ([1]; male, Beagle, dog, plasma, po) read?
Answer: Its AUC(0-inf) is 2320 ng·h/mL.

Question: And the AUC(0-t) ([1]; male, Beagle, dog, plasma, po)?
Answer: Its AUC(0-t) is 1730 ng·h/mL.

Question: What about the Cmax ([1]; male, Beagle, dog, plasma, po) of the same compound?
Answer: The Cmax was 244 ng/mL.

Question: What about the MRT inf ([1]; male, Beagle, dog, plasma, po) of the same compound?
Answer: The MRT inf was 23.3 h.

Question: And the Tmax ([1]; male, Beagle, dog, plasma, po)?
Answer: The Tmax was 1.17 h.

Question: And the half-life ([1]; male, Beagle, dog, plasma, po)?
Answer: The half-life was 13.8 h.

Question: Which purity ([2]; 0 d) does the source give for CCCCCCN(CCCCCC)c1ccc(-n2c(C)nc(C)cc2=O)cc1F.Cl [Example 1, 3-(4-(dihexylamino)-3-fluorophenyl)-2,6-dimethylpyrimidin-4(3H)-one Hydrochloride Crystal-I] here?
Answer: The purity was 99.81%.

Question: And the purity ([2]; 5 d)?
Answer: Its purity is 99.80%.

Question: And the purity ([2]; 10 d)?
Answer: The purity was 99.79%.

Question: And the purity ([3]; 0 d)?
Answer: Its purity is 99.81%.

Question: And the purity ([3]; 5 d)?
Answer: Its purity is 99.79%.

Question: What about the purity ([3]; 10 d) of the same compound?
Answer: Its purity is 99.80%.

Question: And the AUCINF ([1]; male Beagle dogs, oral capsule)?
Answer: The AUCINF was 6310 ng·h/mL.

Question: And the AUClast ([1]; male Beagle dogs, oral capsule)?
Answer: The AUClast was 4470 ng·h/mL.

Question: What about the Cmax ([1]; male Beagle dogs, oral capsule) of the same compound?
Answer: The Cmax was 364 ng/mL.

Question: And the MRTINF ([1]; male Beagle dogs, oral capsule)?
Answer: The MRTINF was 41.9 h.

Question: What about the T1/2 ([1]; male Beagle dogs, oral capsule) of the same compound?
Answer: The T1/2 was 34.5 h.

Question: And the Tmax ([1]; male Beagle dogs, oral capsule)?
Answer: The Tmax was 2.33 h.

Question: Which results are given for CCCCCCN(CCCCCC)c1ccc(-n2c(C)nc(C)cc2=O)cc1F.Cl [Example 2, 3-(4-(dihexylamino)-3-fluorophenyl)-2,6-dimethylpyrimidin-4(3H)-one Hydrochloride Crystal-II]?
Answer: purity ([2]; 0 d): 99.85%; purity ([2]; 5 d): 99.86%; purity ([2]; 10 d): 99.83%; purity ([3]; 0 d): 99.85%; purity ([3]; 5 d): 99.86%; purity ([3]; 10 d): 99.82%; AUCINF [4]: 2820 ng·h/mL; AUClast [4]: 2940 ng·h/mL; Cmax [4]: 485 ng/mL; MRTINF [4]: 9.43 h; T1/2 [4]: 9.54 h; Tmax [4]: 8.83 h; exposure compared to free compound (I) [4]: relative higher exposure

Question: Which results are given for CCCCCCN(CCCCCC)c1ccc(-n2c(C)nc(C)cc2=O)cc1F.Cc1ccc(S(=O)(=O)O)cc1 [Example 6, 3-(4-(dihexylamino)-3-fluorophenyl)-2,6-dimethylpyrimidin-4(3H)-one Tosilate Crystal-I]?
Answer: purity ([2]; 0 d): 99.83%; purity ([2]; 5 d): 99.81%; purity ([2]; 10 d): 99.81%; purity ([3]; 0 d): 99.83%; purity ([3]; 5 d): 99.80%; purity ([3]; 10 d): 99.83%; AUCINF ([1]; male Beagle dogs, oral capsule): 3010 ng·h/mL; AUClast ([1]; male Beagle dogs, oral capsule): 2720 ng·h/mL; Cmax ([1]; male Beagle dogs, oral capsule): 329 ng/mL; MRTINF ([1]; male Beagle dogs, oral capsule): 17.5 h; T1/2 ([1]; male Beagle dogs, oral capsule): 17.5 h; Tmax ([1]; male Beagle dogs, oral capsule): 2 h; exposure compared to free compound (I) ([1]; male Beagle dogs, oral capsule, conclusion from table 1): relative higher exposure

Question: With CCCCCCN(CCCCCC)c1ccc(-n2c(C)nc(C)cc2=O)cc1F.O=C(O)/C=C\C(=O)O [Example 8, 3-(4-(dihexylamino)-3-fluorophenyl)-2,6-dimethylpyrimidin-4(3H)-one Maleate Crystal-I] as the compound, how does the appearance ([2]; 0 d) read?
Answer: The appearance was “white solid”.

Question: What about the purity ([2]; 0 d) of the same compound?
Answer: Its purity is 99.53%.

Question: What about the purity ([2]; 5 d) of the same compound?
Answer: Its purity is 99.49%.

Question: And the purity ([2]; 10 d)?
Answer: Its purity is 99.05%.

Question: And the purity ([3]; 0 d)?
Answer: The purity was 99.53%.

Question: And the purity ([3]; 5 d)?
Answer: Its purity is 99.51%.

Question: What about the purity ([3]; 10 d) of the same compound?
Answer: Its purity is 99.49%.

Question: And the AUCINF [4]?
Answer: The AUCINF was 38337.53 ng·h/mL.

Question: And the AUClast [4]?
Answer: The AUClast was 5859.22 ng·h/mL.

Question: What about the Cmax [4] of the same compound?
Answer: The Cmax was 588 ng/mL.

Question: And the MRTINF [4]?
Answer: Its MRTINF is 155.21 h.

Question: What about the T1/2 [4] of the same compound?
Answer: Its T1/2 is 110.28 h.

Question: What about the Tmax [4] of the same compound?
Answer: Its Tmax is 2 h.

Question: What about the “exposure compared to free compound (I)” value [4] of the same compound?
Answer: Its value is “relative higher exposure”.
